{
  "source": "patent US20090306093A1",
  "about": "“METHOD FOR TREATING PATIENT HAVING BENIGN PROSTATE HYPERPLASIA” (KAOHSIUNG MEDICAL UNIVERSITY, priority 2008, published 2009)",
  "key": {"a1D-adrenoceptor": {"target": "T1, a1D-adrenoceptor (Rattus norvegicus, UniProt P23944)", "T1 construct": "The submaxillary glands, spleen, and aorta of rats were separately homogenized; from tissue; host or cells: Wistar rat aorta membranes", "T1 sequence (P23944 1-561)": "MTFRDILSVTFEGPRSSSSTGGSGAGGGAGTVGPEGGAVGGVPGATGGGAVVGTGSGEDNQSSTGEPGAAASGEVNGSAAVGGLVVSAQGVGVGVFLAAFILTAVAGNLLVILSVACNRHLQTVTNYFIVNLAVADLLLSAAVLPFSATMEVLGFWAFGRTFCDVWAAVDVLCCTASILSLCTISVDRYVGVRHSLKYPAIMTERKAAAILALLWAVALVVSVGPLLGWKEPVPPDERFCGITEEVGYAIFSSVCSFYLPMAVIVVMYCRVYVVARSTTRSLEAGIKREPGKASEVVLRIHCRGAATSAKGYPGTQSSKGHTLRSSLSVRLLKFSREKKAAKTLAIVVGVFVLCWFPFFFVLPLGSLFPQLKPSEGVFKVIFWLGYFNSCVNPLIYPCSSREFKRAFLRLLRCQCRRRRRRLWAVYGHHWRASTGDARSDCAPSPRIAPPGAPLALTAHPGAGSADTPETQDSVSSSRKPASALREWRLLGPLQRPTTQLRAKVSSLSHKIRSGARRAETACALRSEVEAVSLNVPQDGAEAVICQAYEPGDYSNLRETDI", "assay": "[3H]-prazosin competition binding, rat aorta membranes", "settings": "read-out: Receptor Affinity (pKi) a1D (converted)", "procedure": "Wistar rats were obtained from National Laboratory Animal Breeding and Research Center (Taipei, Taiwan) and housed under a constant temperature and controlled illumination. The submaxillary glands, spleen, and aorta of rats were separately homogenized for 30 seconds with a Kinematica polytron in 20 volumes of ice-cold TE buffer (10 mM Tris HCl, 1 mM EDTA, 0.1 mM ascorbic acid, pH 7.4). The homogenate was filtered under pressure through muslin and the filtrate was centrifuged at 1,000 g for 10 minutes. The supernatant was centrifuged again at 10,000 g for 12 minutes at 4° C. The second supernatant was centrifuged at 30,000 g for 15 minutes at 4° C., and the final pellet was resuspended in the assay buffer (75 mM Tris HCl, 25 mM MgCl2, pH 7.4). Protein content was determined by Bradford's method.\n[^3H]-prazosin, KMUP-1 and membranes (200-300 μg) were incubated for 60 minutes at 25° C. with or without the addition of nonspecific binding agents, in a 75 mM Tris HCl buffer with 25 mM MgCl2, making a final volume of 500 μL. In this experiment, non-specific binding was defined by use of 10 μM phentolamine. […] Membrane-bound radioligand trapped in the filters was counted in a Beckman LS6500 scintillation system (Fullerton, Calif.) with an efficiency of 45%. In each experiment, nonspecifically bound radioligand agents were measured by incubating membrane protein. […]"}, "PKG": {"test_system": "PKG", "assay": "Western blot of PKG expression in rat prostate", "procedure": "Prostate strips were incubated with KMUP-1 (10-100 μM), sildenafil (100 μM) and zaprinast (100 μM) in 10 mL Tyrode solution aerated with 95% O2 and 5% CO2 for 1 hour. To examine the possible mechanisms of KMUP-1 action, the rat prostate were pretreated with ODQ (10 μM), SQ22536 (10 μM) and RP-8pCPT-cGMPs (10 μM) for 30 minutes prior to the addition of KMUP-1 (100 μM).\nIn order to examine the expression of Rho kinase in prostate, the prostate strips were pre-incubated with phenylephrine (10 μM) for 30 minutes. After a pre-treatment of phenylephrine, KMUP-1 (10-100 μM) and Y-27632 (10 μM) were further incubated for 30 minutes. After the incubation time, the prostate were extracted with protein extraction reagent (Pierce Biotechnology, Inc., Rockford, Ill., USA.). The PZ-HPV-7 cells were incubated with and without KMUP-1 (0.1-10 μM) at 30 minutes, 8 and 24 hours. They were then washed rapidly with ice-cold PBS, incubated with protein extraction reagent, and scraped from the plates. The prostate tissues and cells were sonicated three times for 10 second each time and centrifuged at 13,000 rpm at 4° C. for 30 minutes. The protein concentrations of supernatants were determined, using bovine serum albumin as the standard. Tissue and cell extract protein were then boiled at a ratio of 4:1 with sample buffer (100 mM Tris, pH 6.8, 20% glycerol, 4% SDS, and 0.2% bromphenol blue). 40-60 μg protein was used in this experiment. Electrophoresis was performed using 10 or 12% SDS-polyacrylamide gel electrophoresis and then transferred to nitrocellulose membranes (Millipore Corporation, Billerica, Mass.). The membrane was blocked with Tris-buffered saline (20 mM Tris and 137 mM NaCl, pH 7.6) containing 0.1% Tween 20 (TTBS) and 5% non-fat milk at room temperature for 1 hour, washed with TTBS, and then incubated overnight at 4° C. in the appropriate primary antibody of PKG (Santa Cruz, 1:200), sGCa1 (Santa Cruz, 1:200), PKA (Abcam, 1:1000), ROCK2 (Upstate, 1:1000), and PDE5A (BD Biosciences, 1:1000), p21 (Upstate, 1:1000). The membranes were washed in TTBS before being incubated with horseradish peroxidase-conjugated antibody against mouse, goat, or rabbit IgG (Santa Cruz, 1:1000) for 1 hour. The membrane was then washed in TTBS and developed with the enhanced chemiluminescence (ECL) for the detection of the specific antigen. The intensity of the bands was measured by densitometry."}},
  "data": [
    {"smiles": "Cn1c(=O)c2c(ncn2CCN2CCN(c3ccccc3Cl)CC2)n(C)c1=O", "note": "[KMUP-1, 7-[2-[4-(2-Chlorobenzene)piperazinyl]ethyl]-1,3-dimethyl xanthine]", "values": [
      {"measurement": "Ki", "setting": "a1D-adrenoceptor", "result": 20.4, "unit": "nM"},
      {"measurement": "expression of PKG", "setting": "PKG; KMUP-1 100 μM after pretreatment of RP-8-pCPT-cGMPs 10 μM for 30 minutes", "result": "significantly reduce"},
      {"measurement": "expression of PKG", "setting": "PKG; KMUP-1 10, 100 μM, sildenafil, zaprinast 100 μM", "result": "significantly induce"}
    ]}
  ]
}
